Measurements: ChEMBL document CHEMBL1135561, “Development of a phosphatase-stable phosphotyrosyl mimetic suitably protected for the synthesis of high-affinity Grb2 SH2 domain-binding ligands” (Bioorg Med Chem Lett, 2002)

Key:
[1] = target: T1, Growth factor receptor-bound protein 2 (Homo sapiens, UniProt P62993); test: Binding affinity for Growth factor receptor bound protein 2 SH2 domain
MDA-MB-453 = test: Inhibition of MDA-MB-453 cell proliferation; type: functional, cell-based; details: Homo sapiens
[2] = target: T1, Growth factor receptor-bound protein 2; test: Inhibition of Growth factor receptor bound protein 2 SH2 domain binding to p185erbB-2 receptor

IC50 [1] | IC50 (MDA-MB-453) | IC50 [2] | SMILES
0.009 µM | 5 µM | 3 µM | NC(=O)C[C@H](NC(=O)C1(NC(=O)[C@H](Cc2ccc(CP(=O)(O)O)cc2)NC(=O)C(=O)O)CCCCC1)C(=O)NCCCc1cccc2ccccc12
0.008 µM | 8 µM | 10 µM | NC(=O)C[C@H](NC(=O)C1(NC(=O)[C@@H](CC(=O)O)Cc2ccc(CP(=O)(O)O)cc2)CCCCC1)C(=O)NCCCc1cccc2ccccc12
5 µM | > 50 µM | > 30 µM | [N-]=[N+]=N[C@@H](Cc1ccc(CP(=O)(O)O)cc1)C(=O)NC1(C(=O)N[C@@H](CC(N)=O)C(=O)NCCCc2cccc3ccccc23)CCCCC1
